Consider 27 compounds from US20050090529A1, “3,5 Disubstituted indazole compounds with nitrogen-bearing 5-membered heterocycles, pharmaceutical compositions, and methods for mediating or inhibiting cell proliferation” (PFIZER INC, priority 2003, published 2005).

In general, solubility refers to the concentration that dissolves in the medium under given conditions. Lower therefore signals a poorly soluble substance.

Data set [1] in a line: Measurement of kinetic solubility. The following applies: pH 6.5, aqueous buffer, kinetic from dmso stock. Here is the method:
Kinetic solubility was determined with a […] stock solution from the compound(s) of interest. […] Samples and standards were then centrifuged and an aliquot was removed for HPLC analysis. Samples and standards were analyzed by HPLC and a final concentration for the sample was determined based on a one-point calibration curve from the corresponding standard. Results were reported as μg's/mL.

The target of another data set is T1, CDK2/Cyclin A (Homo sapiens, UniProt P24941).
T1 construct: made in house; host or cells: CDK2: insect cells (baculovirus); cyclin A: E. coli
Description: Inhibition of CDK2/Cyclin A retinoblastoma kinase activity (apparent Ki). In kind it is biochemical. In a few lines:
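Cyclin A complex (proteolyzed cyclin) purified by gel filtration; enzyme-initiated reactions ran 20 min at 30 °C, transferring radiolabelled phosphate from [32P]/[33P]ATP onto a protein substrate, stopped with EDTA and quantified by phosphorimager.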

Each structure is given as a SMILES string. In brackets after ≈: the same amount, converted by molar mass. Read-outs that look alike come from different tables or passages of the source. A value given as a limit tells only on which side of the number the result lay.

As for `CCNCc1cncc(-c2ccc3[nH]nc(-c4nc(-c5cc(Cl)cc(Cl)c5)c(C)[nH]4)c3c2)c1C` [Example 26, (5-{3-[4-(3,5-Dichloro-phenyl)-5-methyl-1H-imidazol-2-yl]-1H-indazol-5-yl}-4-methyl-pyridin-3-ylmethyl)-ethyl-amine], the solubility in data set [1] (100 mM sodium phosphate buffer) is less than 20 µg/mL. For the same compound, the Ki at CDK2/Cyclin A (read-out: CDK2 Ki) was less than 50 nM.
In turn, `CCNCc1cncc(-c2ccc3[nH]nc(-c4nc(-c5cccc(C(F)(F)F)c5)c(C)[nH]4)c3c2)c1C` [Example 27, Ethyl-(4-methyl-5-{3-[5-methyl-4-(3-trifluoromethyl-phenyl)-1H-imidazol-2-yl]-1H-indazol-5-yl}-pyridin-3-ylmethyl)-amine] displayed a solubility in data set [1] (100 mM sodium phosphate buffer) of less than 20 µg/mL. The Ki at CDK2/Cyclin A (read-out: CDK2 Ki) is less than 50 nM.
In the same order, the values of `CCNCc1cncc(-c2ccc3[nH]nc(-c4nc(-c5ccc(C(F)(F)F)cc5)c(C)[nH]4)c3c2)c1C` [Example 28, Ethyl-(4-methyl-5-{3-[5-methyl-4-(4-trifluoromethyl-phenyl)-1H-imidazol-2-yl]-1H-indazol-5-yl}-pyridin-3-ylmethyl)-amine] are 20 to 120 µg/mL (≈ 40.8 to 245 µM) and less than 50 nM.
On to `CCNCc1cncc(-c2ccc3[nH]nc(-c4nc(-c5ccccc5)c(C)[nH]4)c3c2)c1C` [Example 29, Ethyl-{4-methyl-5-[3-(5-methyl-4-phenyl-1H-imidazol-2-yl)-1H-indazol-5-yl]-pyridin-3-ylmethyl}-amine], for which the solubility in data set [1] (100 mM sodium phosphate buffer) lay in the range of 20 to 120 µg/mL (≈ 47.3 to 284 µM). For the same compound, the Ki at CDK2/Cyclin A (read-out: CDK2 Ki) was less than 50 nM.
In data set [1] (100 mM sodium phosphate buffer), `CCNCc1cncc(-c2ccc3[nH]nc(-c4nc(-c5ccccc5)c[nH]4)c3c2)c1C` [Example 30, Ethyl-{4-methyl-5-[3-(4-phenyl-1H-imidazol-2-yl)-1H-indazol-5-yl]-pyridin-3-ylmethyl}-amine] had a solubility of 20 to 120 µg/mL (≈ 49 to 294 µM). Further, the Ki on CDK2/Cyclin A (read-out: CDK2 Ki) is less than 50 nM.
In the same order, the values of `CCNCc1cncc(-c2ccc3[nH]nc(-c4nc(-c5ccc(F)cc5)c[nH]4)c3c2)c1C` [Example 31, Ethyl-(5-{3-[4-(4-fluoro-phenyl)-1H-imidazol-2-yl]-1H-indazol-5-yl}-4-methyl-pyridin-3-ylmethyl)-amine] are 20 to 120 µg/mL (≈ 46.9 to 281 µM) and less than 50 nM.
The like results for `CCNCc1cncc(-c2ccc3[nH]nc(-c4nc(-c5cccc(F)c5)c[nH]4)c3c2)c1C` [Example 32, Ethyl-(5-{3-[4-(3-fluoro-phenyl)-1H-imidazol-2-yl]-1H-indazol-5-yl}-4-methyl-pyridin-3-ylmethyl)-amine] were, in that order, greater than 120 µg/mL and less than 50 nM.
`CCNCc1cncc(-c2ccc3[nH]nc(-c4nc(-c5cccc(OC)c5)c[nH]4)c3c2)c1C` [Example 35, Ethyl-(5-{3-[4-(3-methoxy-phenyl)-1H-imidazol-2-yl]-1H-indazol-5-yl}-4-methyl-pyridin-3-ylmethyl)-amine]: the solubility in data set [1] (100 mM sodium phosphate buffer) is 20 to 120 µg/mL (≈ 45.6 to 274 µM). Also, the Ki on CDK2/Cyclin A (read-out: CDK2 Ki) is less than 50 nM.
Consider `COCc1cncc(-c2ccc3[nH]nc(-c4nc5c([nH]4)CCCC5)c3c2)c1C` [Example 41, 5-(5-Methoxymethyl-4-methyl-pyridin-3-yl)-3-(4,5,6,7-tetrahydro-1H-benzoimidazol-2-yl)-1H-indazole], for which the solubility in data set [1] (100 mM sodium phosphate buffer) is greater than 120 µg/mL. The Ki on CDK2/Cyclin A (read-out: CDK2 Ki) is less than 50 nM.
Regarding `COCc1cncc(-c2ccc3[nH]nc(-c4ncc[nH]4)c3c2)c1C` [Example 42, 3-(1H-Imidazol-2-yl)-5-(5-methoxymethyl-4-methyl-pyridin-3-yl)-1H-indazole], the solubility in data set [1] (100 mM sodium phosphate buffer) is greater than 120 µg/mL. Besides, the Ki on CDK2/Cyclin A (read-out: CDK2 Ki) was in the range of 50 to 200 nM.
The like results for `CCOCc1cncc(-c2ccc3[nH]nc(-c4nc5c([nH]4)CCCC5)c3c2)c1C` [Example 43, 5-(5-Ethoxymethyl-4-methyl-pyridin-3-yl)-3-(4,5,6,7-tetrahydro-1H-benzoimidazol-2-yl)-1H-indazole] were, in that order, 20 to 120 µg/mL (≈ 51.6 to 310 µM) and 50 to 200 nM.
`CCOCc1cncc(-c2ccc3[nH]nc(-c4ncc[nH]4)c3c2)c1C` [Example 44, 5-(5-Ethoxymethyl-4-methyl-pyridin-3-yl)-3-(1H-imidazol-2-yl)-1H-indazole]: the solubility in data set [1] (100 mM sodium phosphate buffer) was greater than 120 µg/mL. Also, the Ki at CDK2/Cyclin A (read-out: CDK2 Ki) is 50 to 200 nM.
In turn, `CCNCc1cncc(-c2ccc3[nH]nc(-c4nc5c([nH]4)CCCC5)c3c2)c1CC` [Example 46, Ethyl-{4-ethyl-5-[3-(4,5,6,7-tetrahydro-1H-benzoimidazol-2-yl)-1H-indazol-5-yl]-pyridin-3-ylmethyl}-amine] returned a solubility in data set [1] (100 mM sodium phosphate buffer) greater than 120 µg/mL. Moreover, the Ki at CDK2/Cyclin A (read-out: CDK2 Ki) is less than 50 nM.
`CCNCc1cncc(-c2ccc3[nH]nc(-c4ncc[nH]4)c3c2)c1CC` [Example 47, Ethyl-{4-ethyl-5-[3-(1H-imidazol-2-yl)-1H-indazol-5-yl]-pyridin-3-ylmethyl}-amine] returned a solubility in data set [1] (100 mM sodium phosphate buffer) greater than 120 µg/mL. Besides, on CDK2/Cyclin A (read-out: CDK2 Ki), the Ki was less than 50 nM.
The like results for `Cc1c(CNC(C)C)cncc1-c1ccc2[nH]nc(-c3ncc[nH]3)c2c1` [Example 48, {5-[3-(1H-Imidazol-2-yl)-1H-indazol-5-yl]-4-methyl-pyridin-3-ylmethyl}-isopropyl-amine] were, in that order, greater than 120 µg/mL and less than 50 nM.
As for `CCNCc1cncc(-c2ccc3[nH]nc(-c4nc(C(=O)NCc5cccnc5)c[nH]4)c3c2)c1C` [Example 49, 2-(5-{5-[(ethylamino)methyl]-4-methylpyridin-3-yl}-1H-indazol-3-yl)-N-(pyridin-3-ylmethyl)-1H-imidazole-5-carboxamide], in data set [1] (100 mM sodium phosphate buffer), the solubility is greater than 120 µg/mL. In addition, the Ki on CDK2/Cyclin A (read-out: CDK2 Ki) is less than 50 nM.
With `CCNCc1cncc(-c2ccc3[nH]nc(-c4nc(C(=O)NC5CCCCC5)c[nH]4)c3c2)c1C` [Example 50, N-cyclohexyl-2-(5-{5-[(ethylamino)methyl]-4-methylpyridin-3-yl}-1H-indazol-3-yl)-1H-imidazole-5-carboxamide], the solubility in data set [1] (100 mM sodium phosphate buffer) was in the range of 20 to 120 µg/mL (≈ 43.7 to 262 µM). In addition, the Ki at CDK2/Cyclin A (read-out: CDK2 Ki) is less than 50 nM.
Turning to `CCNCc1cncc(-c2ccc3[nH]nc(-c4ncc(C(=O)N[C@@H]5CCc6ccccc65)[nH]4)c3c2)c1C` [Example 51, N-[(1R)-2,3-dihydro-1H-inden-1-yl]-2-(5-{5-[(ethylamino)methyl]-4-methylpyridin-3-yl}-1H-indazol-3-yl)-1H-imidazole-5-carboxamide], the solubility in data set [1] (100 mM sodium phosphate buffer) lay within 20 to 120 µg/mL (≈ 40.7 to 244 µM). Further, at CDK2/Cyclin A (read-out: CDK2 Ki), the Ki is less than 50 nM.
For the compound `CCNCc1cncc(-c2ccc3[nH]nc(-c4ncc(C(=O)N[C@H]5CCc6ccccc65)[nH]4)c3c2)c1C` [Example 53, N-[(1S)-2,3-dihydro-1H-inden-1-yl]-2-(5-{5-[(ethylamino)methyl]-4-methylpyridin-3-yl]-1H-indazol-3-yl)-1H-imidazole-5-carboxamide], the solubility in data set [1] (100 mM sodium phosphate buffer) is 20 to 120 µg/mL (≈ 40.7 to 244 µM). Moreover, the Ki at CDK2/Cyclin A (read-out: CDK2 Ki) was less than 50 nM.
`CCNCc1cncc(-c2ccc3[nH]nc(-c4ncc(C(=O)NCCN(C)C)[nH]4)c3c2)c1C` [Example 54, N-[2-(dimethylamino)ethyl]-2-(5-{5-[(ethylamino)methyl]-4-methylpyridin-3-yl}-1H-indazol-3-yl)-1H-imidazole-5-carboxamide]: the solubility in data set [1] (100 mM sodium phosphate buffer) is greater than 120 µg/mL. In addition, on CDK2/Cyclin A (read-out: CDK2 Ki), the Ki was less than 50 nM.
The like results for `CCNCc1cncc(-c2ccc3[nH]nc(-c4ncc(C(=O)N5CCOCC5)[nH]4)c3c2)c1C` [Example 55, N-[(4-methyl-5-{3-[5-(morpholin-4-ylcarbonyl)-1H-imidazol-2-yl]-1H-indazol-5-yl}pyridin-3-yl)methyl]ethanamine] were, in that order, greater than 120 µg/mL and less than 50 nM.
The like results for `CCNCc1cncc(-c2ccc3[nH]nc(-c4ncc(C(=O)N5CCCC5)[nH]4)c3c2)c1C` [Example 61, N-[(4-methyl-5-{3-[5-(pyrrolidin-1-ylcarbonyl)-1H-imidazol-2-yl]-1H-indazol-5-yl}pyridin-3-yl)methyl]ethanamine] were, in that order, 20 to 120 µg/mL (≈ 46.6 to 279 µM) and less than 50 nM.
In the same order, the values of `CCNCc1cncc(-c2ccc3[nH]nc(-c4nc(C(=O)N5CCCCC5)c[nH]4)c3c2)c1C` [Example 62, N-[(4-methyl-5-{3-[5-(piperidin-1-ylcarbonyl)-1H-imidazol-2-yl]-1H-indazol-5-yl}pyridin-3-yl)methyl]ethanamine] are greater than 120 µg/mL and less than 50 nM.
Consider `CCNCc1cncc(-c2ccc3[nH]nc(-c4nc(C(=O)NCC)c[nH]4)c3c2)c1C` [Example 63, N-ethyl-2-(5-{5-[(ethylamino)methyl]-4-methylpyridin-3-yl}-1H-indazol-3-yl)-1H-imidazole-5-carboxamide], for which, in data set [1] (100 mM sodium phosphate buffer), the solubility is greater than 120 µg/mL. Besides, on CDK2/Cyclin A (read-out: CDK2 Ki), the Ki was less than 50 nM.
Compound `CCNCc1cncc(-c2ccc3[nH]nc(-c4nc(C(=O)NC(C)C)c[nH]4)c3c2)c1C` [Example 64, 2-(5-{5-[(ethylamino)methyl]-4-methylpyridin-3-yl}-1H-indazol-3-yl)-N-isopropyl-1H-imidazole-5-carboxamide] gave a solubility in data set [1] (100 mM sodium phosphate buffer) greater than 120 µg/mL. Further, the Ki on CDK2/Cyclin A (read-out: CDK2 Ki) was less than 50 nM.
In data set [1] (100 mM sodium phosphate buffer), `CCNCc1cncc(-c2ccc3[nH]nc(-c4nc(C(=O)NCCOC)c[nH]4)c3c2)c1C` [Example 65, 2-(5-{5-[(ethylamino)methyl]-4-methylpyridin-3-yl}-1H-indazol-3-yl)-N-(2-methoxyethyl)-1H-imidazole-5-carboxamide] registered a solubility greater than 120 µg/mL. In addition, on CDK2/Cyclin A, the Ki is less than 50 nM.
In turn, `CCNCc1cncc(-c2ccc3[nH]nc(-c4ncc(C(=O)N5CCN(Cc6ccccc6)CC5)[nH]4)c3c2)c1C` [Example 66, N-{[5-(3-{5-[(4-benzylpiperazin-1-yl)carbonyl]-1H-imidazol-2-yl}-1H-indazol-5-yl)-4-methylpyridin-3-yl]methyl}ethanamine] returned a solubility in data set [1] greater than 120 µg/mL. Moreover, the Ki at CDK2/Cyclin A (read-out: CDK2 Ki) was less than 50 nM.
